Tested on: MC3T3-E1 cells
Experiment: Cell attachment and growth on modified (HA-coated, periodate-oxidized) surfaces carrying bioactive agents
Assay type: cell-based, murine
Details: for cell attachment and growth: FIG. 4A, immobilized HA surface treated with lowest (3 mM) periodate concentration, collagen 3.2 mg/ml, laminin 2 mg/ml
Source text: MC3T3-E1 cells were used to determine the effect of different bioactive agents for creation of bioactive surfaces influencing the growth and differentiation of these osteoblasts (also considered to be osteogenic stem cells). These cells are from a clonal line of murine calvaria-derived osteoblast (establishment of a clonal osteogenic cell line from newborn mouse calvaria describe in J Oral Biol 23:899 (1981)). The cells are maintained in α-MEM (GIBCO Catalog #12561) supplemented with 2% fetal calf serum (FCS; inactivated) and 100 units or μg/ml penicillin/streptomycin.
The cells were seeded at a concentration of approximately 10^4 cells/20 ml culture medium in a 250 ml canted neck polystyrene tissue culture-treated flask. Cells were cultured until they reach about 2×10^6 cells/flask. Cells were harvested and resuspended in 5 ml of α-MEM with 2% FCS to a final cell concentration of about 4×10^4 cells/100 μl.
The surface modified slide was placed into a polystyrene Petri dish and covered with the cells for 30 minutes. […] To quantitate cell attachment and growth, an image of the slide or other surface after staining with hematoxylin/eosin was captured using a color scanner, and the density determined using the Scion Image analysis program.

| Substance | cell density on bioactive agent (FIG. 2, cells grown on microarray of bioactive agents coupled to HA surface, fluorescent staining) | cell attachment and growth | cell growth on ECM peptide surface vs. control surface (FIGS. 4B-4F, RGDSP 1 mg/ml deposited on oxidized HA surface) |
| --- | --- | --- | --- |
| laminin | cell density was greater on Vitrogen™ than on laminin | supported cell attachment and growth | – |
| collagen | – | supported cell attachment and growth | – |
| Arg-Gly-Asp-Ser-Pro (RGDSP) (printed: Arg-Gly-Asp-Ser-Pro) [ECM adhesion peptide from AnaSpec Inc, reference compound] | – | – | cells grew only on the surfaces onto which RGDSP was deposited |

Source: patent US20030113813A1, “Methods and devices for the integrated discovery of cell culture environments” (priority 2001, published 2003)
